{"source": "patent US7468367B2", "about": "“Ethylene diamine derivatives and their use as orexin-receptor antagonists” (Smithkline Beecham p.l.c., priority 2001, dated 2008)", "origin": "cited, not measured here", "key": {"orexin receptors": {"system": "orexin receptors", "conditions": "central administration at the onset of the normal sleep period"}, "freely-feeding rats": {"system": "freely-feeding rats", "conditions": "central administration, 4 hour time period"}}}
{"substance": "orexin-A: peptide ligand and agonist of the orexin receptors; the human amino acid sequence is given in the 1st table (QPLPDCCRQKTCSCRLYELLHGAGNHAAGILTL; not fully specified; Orexin-A; UniProt O43612 34-66, looked up)", "values": [{"measurement": "arousal in rat sleep/EEG", "setting": "orexin receptors", "value": "dose-related increase in arousal"}, {"measurement": "increase in food intake over control rats receiving vehicle", "setting": "freely-feeding rats", "value": "approximately four-fold"}]}
